From the NIST ThermoML archive (doi:10.1021/je050540h)

Test: xn = mol fraction of the nth substance listed
Conditions: 101 kPa, Liquid

CCC(C)O (stereo not given) [butan-2-ol] + C1CCCC1
x2 = 0
Conditions	mass density [kg/m3]	speed of sound [m/s]	viscosity [mPa·s]
293.15 K	806.84	1230	3.623
298.15 K	802.72	1212	2.995
303.15 K	798.51	1194	2.493

CCC(C)O (stereo not given) [butan-2-ol] + C1CCCCC1
Conditions	mass density, 293.15 K [kg/m3]	mass density, 298.15 K [kg/m3]	mass density, 303.15 K [kg/m3]	speed of sound, 293.15 K [m/s]	speed of sound, 298.15 K [m/s]	speed of sound, 303.15 K [m/s]	viscosity, 293.15 K [mPa·s]	viscosity, 298.15 K [mPa·s]	viscosity, 303.15 K [mPa·s]
x2 = 0	806.84	802.72	798.51	1230	1212	1194	3.623	2.995	2.493
x2 = 0.0494	804.24	800.04	795.77	1228	1210	1191	3.231	2.687	2.251
x2 = 0.1003	801.95	797.69	793.34	1226	1207	1188	2.915	2.444	2.066
x2 = 0.1969	797.77	793.37	788.88	1223	1204	1184	2.227	1.891	1.623
x2 = 0.3052	793.48	788.95	784.34	1222	1201	1181	1.726	1.489	1.294
x2 = 0.4044	789.86	785.24	780.54	1222	1201	1179	1.48	1.299	1.142
x2 = 0.5004	786.73	782.04	777.29	1224	1202	1180	1.315	1.166	1.042
x2 = 0.6016	783.91	779.18	774.41	1228	1205	1183	1.16	1.042	0.942
x2 = 0.7145	781.42	776.68	772.02	1236	1213	1189	1.066	0.968	0.888
x2 = 0.8067	779.85	775.08	770.26	1245	1222	1198	0.98	0.892	0.817
x2 = 0.9046	778.86	774.06	769.22	1259	1235	1211	0.962	0.879	0.806
x2 = 0.9523	778.43	773.65	768.82	1267	1242	1218	0.993	0.908	0.833

C1CCCCC1 [cyclohexane] + CC(C)O
Conditions	mass density, 293.15 K [kg/m3]	mass density, 298.15 K [kg/m3]	mass density, 303.15 K [kg/m3]	speed of sound, 293.15 K [m/s]	speed of sound, 298.15 K [m/s]	speed of sound, 303.15 K [m/s]	viscosity, 293.15 K [mPa·s]	viscosity, 298.15 K [mPa·s]	viscosity, 303.15 K [mPa·s]
x1 = 0.0484	783.76	779.5	775.15	1160	1141	1123	2.184	1.883	1.633
x1 = 0.097	782.63	778.29	773.87	1163	1145	1126	1.988	1.722	1.504
x1 = 0.2006	780.51	776.05	771.5	1171	1152	1132	1.651	1.444	1.267
x1 = 0.3002	778.87	774.29	769.62	1180	1159	1139	1.427	1.26	1.112
x1 = 0.3977	777.63	772.95	768.19	1189	1167	1146	1.264	1.119	0.996
x1 = 0.507	776.69	771.92	767.09	1200	1178	1155	1.128	1.008	0.908
x1 = 0.6046	776.15	771.34	766.47	1211	1188	1165	1.025	0.926	0.838
x1 = 0.7058	775.92	771.11	766.23	1223	1200	1176	0.969	0.878	0.798
x1 = 0.823	776.23	771.42	766.56	1240	1216	1192	0.944	0.856	0.786
x1 = 0.9016	776.88	772.09	767.24	1254	1230	1206	0.95	0.87	0.801
x1 = 0.9521	777.52	772.74	767.92	1265	1240	1216	0.962	0.874	0.802
x1 = 1	778.62	773.92	769.19	1279	1254	1230	0.968	0.887	0.816
